Data published in patent publication US8367328B2, “Method for synthesizing DNA” (Takara Bio Inc., priority 1998, dated 2013).

Tests used:
Pyrobest DNA Polymerase = assay: PCR with Pyrobest DNA Polymerase in the presence of cationic complexes; format: biochemical, Pyrococcus sp.; conditions: for Amount of amplified DNA relative to No Addition (=1), Pyrobest: 100 pg E. coli JM109 genomic DNA, primers Eco1/Eco2, 30 cycles 98°C 5 s–68°C 2 min, FM-BIO 100
ExTaq DNA Polymerase = assay: PCR with ExTaq DNA Polymerase in the presence of cationic complexes; format: biochemical; conditions: for Amount of amplified DNA relative to No Addition (=1), ExTaq: 100 pg E. coli JM109 genomic DNA, primers Eco1/Eco2, 30 cycles 98°C 5 s–68°C 1 min, FM-BIO 100
Source text: Using hexaamminecobalt (III) chloride ([Co(NH3)6]Cl3) (manufactured by Sigma), tris(ethylenediamine)cobalt (III) chloride ([Co(C2H8N2)3]Cl3) (manufactured by Aldrich), or tris(ethylenediamine)rhodium (III) trichloride•trihydrate ([Rh(C2H8N2)3]Cl3.3H2O) (manufactured by Aldrich), the effects on the amplification reaction by various kinds of DNA polymerases were examined. As the DNA polymerases, TaKaRa Taq DNA Polymerase (hereinafter referred to as “Taq DNA Polymerase” manufactured by Takara Shuzo Co., Ltd.), Pyrobest DNA Polymerase (manufactured by Takara Shuzo Co., Ltd.) and Ex Taq DNA Polymerase (manufactured by Takara Shuzo Co., Ltd.) were used.
A reaction mixture comprising Escherichia coli JM109 genomic DNA as a template, primers Eco1 and Eco2 as a primer pair, and DNA polymerase was prepared, and PCR was carried out. The compositions of the reaction mixture for each enzyme are as follows.
a reaction mixture comprising 5 μl of 10-fold concentrated buffer for TaKaRa ExTaq DNA Polymerase (manufactured by Takara Shuzo Co., Ltd.), 0.2 mM each of dATP, dCTP, dGTP and dTTP, 100 pg of Escherichia coli JM109 genomic DNA, 1.25 U of TaKaRa EX-Taq DNA Polymerase, and 10 pmol each of primers Eco1 and Eco2 (a final volume being 50 μl).
Further, an aqueous solution of the above-mentioned complexes each so as to have a final concentration of 50 μM, 100 μM, or 200 μM was added to the above reaction mixture.
The reaction was carried out in Fast mode by using TaKaRa PCR Thermal Cycler Personal (manufactured by Takara Shuzo Co., Ltd.). The reaction conditions are as follows. When using Taq DNA Polymerase and Pyrobest DNA Polymerase, the reaction in 30 cycles was carried out for each of these reaction mixtures, wherein one cycle of reaction comprises a process consisting of 98° C., 5 seconds—68° C., 2 minutes, and when using ExTaq DNA Polymerase, the reaction in 30 cycles was carried out for each of these reaction mixtures, wherein one cycle of reaction comprises a process consisting of 98° C., 5 seconds—68° C., 1 minute. After the termination of the reaction, 5 μl of the resulting reaction mixture was subjected to electrophoresis on 2% agarose gel containing ethidium bromide in an amount of 0.00005%. The gel after the electrophoresis was subjected to ultraviolet irradiation to visualize the band ascribed to the amplified product, whereby an amplified fragment was confirmed. The amount of amplified DNA was numerically explained by using a fluorescent image analyzer FM-BIO 100 (manufactured by Takara Shuzo Co., Ltd.). […]
After the termination of the reaction, 5 μL of the resulting reaction mixture was subjected to electrophoresis on 2% agarose gel containing ethidium bromide in an amount of 0.00005%. The gel after the electrophoresis was subjected to ultraviolet irradiation to visualize the band ascribed to the amplified product, whereby an amplified fragment was confirmed.
The DNA polymerases used and the composition for the reaction mixture were similar to those in Example 17, except for the cationic complex, where in cases of using Taq DNA Polymerase and Pyrobest DNA Polymerase, hexaamminecobalt (III) chloride was added so as to have a final concentration of 100 μM, or in a case of using ExTaq DNA Polymerase, hexaamminecobalt (III) chloride was added so as to have a final concentration of 50 μM, respectively. Further, the amount of template DNA was added so as to be 1 pg, 5 pg, 10 pg, 100 pg, or 1 ng, respectively.
The reaction was carried out in Fast mode by using TaKaRa PCR Thermal Cycler Personal. The reaction conditions are as follows. When using Taq DNA Polymerase and Pyrobest DNA Polymerase, the reaction in 30 cycles was carried out, wherein one cycle of reaction comprises a process consisting of 98° C., 5 seconds—68° C., 2 minutes. When using ExTaq DNA Polymerase, the reaction in 30 cycles was carried out, wherein one cycle of reaction comprises a process consisting of 98° C., 5 seconds—68° C., 1 minute. […]

| Structure (SMILES) | Amount of amplified DNA relative to No Addition (=1), Pyrobest (Pyrobest DNA Polymerase; complex 50 μM) | Amount of amplified DNA relative to No Addition (=1), Pyrobest (Pyrobest DNA Polymerase; complex 100 μM) | Amount of amplified DNA relative to No Addition (=1), ExTaq (ExTaq DNA Polymerase; complex 50 μM) | Amount of amplified DNA relative to No Addition (=1), ExTaq (ExTaq DNA Polymerase; complex 100 μM) | Amount of amplified DNA relative to No Addition (=1), Pyrobest (Pyrobest DNA Polymerase; complex 200 μM) | Amplification of desired long DNA fragment (Pyrobest DNA Polymerase; Pyrobest, 10 ng E. coli genome, primers Eco1/Eco5 (10 kb), 30 cycles 98°C 5 s–68°C 10 min, 50 μM or 100 μM, only slight without addition) | Primer amount with which a fragment can still be amplified (Pyrobest DNA Polymerase; Pyrobest, 100 μM complex, primers 2–20 pmol tested, no amplification without addition) [pmol] | Amount of template DNA at which amplification was still possible (Pyrobest DNA Polymerase; Pyrobest, 100 μM complex, templates 1 pg–1 ng tested, no amplification at 1 pg without addition) [pg] | Amplification in low-magnesium reaction mixture (Pyrobest DNA Polymerase; Pyrobest, 0.5 mM magnesium chloride (usual 1 mM), 100 μM complex, no amplification without addition) | Amplification with one-half the usual enzyme amount versus usual amount without addition (ExTaq DNA Polymerase; ExTaq 0.625 U + 50 μM complex vs 1.25 U without addition) | Primer amount with which a fragment can still be amplified (ExTaq DNA Polymerase; ExTaq, 50 μM complex, primers 2–20 pmol tested, no amplification without addition) [pmol] | Amount of template DNA at which amplification was still possible (ExTaq DNA Polymerase; ExTaq, 50 μM complex, templates 1 pg–1 ng tested, no amplification at 1 pg without addition) [pg] | Amplification in low-magnesium reaction mixture (ExTaq DNA Polymerase; ExTaq, 1.25 mM magnesium chloride (usual 2 mM), 10 μM complex, no amplification without addition) | Amount of amplified DNA relative to No Addition (=1), ExTaq (ExTaq DNA Polymerase; complex 200 μM) |
| --- | --- | --- | --- | --- | --- | --- | --- | --- | --- | --- | --- | --- | --- | --- |
| NCCN.NCCN.NCCN.[Cl-].[Cl-].[Cl-].[Co+3] [[Co(H2NCH2CH2NH2)3]Cl3, tris(ethylenediamine)cobalt (III) chloride] | 2.1 | 2.2 | 2.0 | 2.0 |  |  |  |  |  |  |  |  |  |  |
| N.N.N.N.N.N.[Cl-].[Cl-].[Cl-].[Co+3] [[Co(NH3)6]Cl3, hexaamminecobalt (III) chloride] | 2.1 | 2.1 | 1.9 | 1.9 | 2.1 | excellently amplified | 3.3 | 1 | allowed to amplify | almost the same level | 2.5 | 1 | allowed to amplify |  |
| NCCN.NCCN.NCCN.O.O.O.[Cl][Rh]([Cl])[Cl] [[Rh(H2NCH2CH2NH2)3]Cl3, tris(ethylenediamine)rhodium (III) trichloride•trihydrate] | 1.4 | 1.7 | 1.3 | 1.5 | 2.0 |  |  |  |  |  |  |  |  | 1.7 |
